Test results: PubChem BioAssay (NCI)
Values joined by “and” are separate entries in the source; they are usually repeats but may differ in a detail not shown here. Equal values may be shown once.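 Tested at 5 concentrations; 48 h exposure; 96-well plates; endpoints linearly interpolated, else capped at highest concentration. Here, GI50 denotes the concentration required for 50% inhibition of growth. At the TGI there is no net growth.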

Legend:
Test in all cases: NCI anticancer screen, dose series, 48 h
MCF7 breast = tested on: MCF7 breast
SK-OV-3 ovarian = tested on: SK-OV-3 ovarian
OVCAR-5 ovarian = tested on: OVCAR-5 ovarian
COLO 205 colon = tested on: COLO 205 colon
A549 NSCLC = tested on: A549 NSCLC
HL-60(TB) leukemia = tested on: HL-60(TB) leukemia
HOP-62 NSCLC = tested on: HOP-62 NSCLC
SK-MEL-5 melanoma = tested on: SK-MEL-5 melanoma
HCT-116 colon = tested on: HCT-116 colon
DU-145 prostate = tested on: DU-145 prostate

Compound: COC(=O)[C@]12CC[C@@H](C)[C@H](C)[C@@H]1C1=CC[C@@H]3[C@@]4(C)C[C@@H](OC(C)=O)[C@H](OC(C)=O)[C@@](C)(COC(C)=O)[C@@H]4[C@H](O)C[C@@]3(C)[C@]1(C)CC2
- GI50 (MCF7 breast): 1.57 µM
- TGI (MCF7 breast): 27.9 µM
- GI50 (SK-OV-3 ovarian): 3.1 µM
- TGI (SK-OV-3 ovarian): > 100 µM
- GI50 (OVCAR-5 ovarian): 7.04 µM
- TGI (OVCAR-5 ovarian): > 100 µM
- GI50 (COLO 205 colon): 0.513 µM
- TGI (COLO 205 colon): 6.25 µM
- GI50 (A549 NSCLC): 2.06 µM
- TGI (A549 NSCLC): > 100 µM
- GI50 (HL-60(TB) leukemia): 0.59 µM
- TGI (HL-60(TB) leukemia): 11.4 µM
- GI50 (HOP-62 NSCLC): 3.25 µM
- TGI (HOP-62 NSCLC): > 100 µM
- GI50 (SK-MEL-5 melanoma): 0.367 µM
- TGI (SK-MEL-5 melanoma): 1.72 µM
- GI50 (HCT-116 colon): 0.423 µM
- TGI (HCT-116 colon): > 100 µM
- GI50 (DU-145 prostate): 3.55 µM
- TGI (DU-145 prostate): > 100 µM

Compound: COc1oc(C2C/C(=C/C(C)=C/C(C)=C/C(C)=C/c3ccc([N+](=O)[O-])cc3)CO2)c(C)c(=O)c1C (configuration not stated)
- TGI (MCF7 breast): 19 µM
- TGI (SK-OV-3 ovarian): > 63.5 µM
- TGI (OVCAR-5 ovarian): > 100 µM
- TGI (COLO 205 colon): 24.6 µM
- TGI (A549 NSCLC): 68.3 µM
- TGI (HL-60(TB) leukemia): 8.13 µM
- TGI (HOP-62 NSCLC): > 100 µM
- TGI (SK-MEL-5 melanoma): 3.61 µM
- TGI (HCT-116 colon): 18.2 µM
- TGI (DU-145 prostate): > 47.3 µM

Compound: C=C1C(C)C2C(Cc3ccccc3)NC(=O)C23C(OC(C)=O)C=CC(C)(O)C(=O)C(C)C/C=C/C3C1O (configuration not stated)
- GI50 (MCF7 breast): 8.87 µM
- TGI (MCF7 breast): 87 µM and 275 µM
- GI50 (SK-OV-3 ovarian): 0.0761 µM and 0.23 µM
- TGI (SK-OV-3 ovarian): 49.5 µM and 76.1 µM
- TGI (OVCAR-5 ovarian): > 500 µM
- GI50 (COLO 205 colon): 0.0825 µM
- TGI (COLO 205 colon): > 500 µM
- GI50 (A549 NSCLC): 0.241 µM
- TGI (A549 NSCLC): > 500 µM
- GI50 (HL-60(TB) leukemia): 1.61 µM
- TGI (HL-60(TB) leukemia): 20.5 µM and 15.7 µM
- GI50 (HOP-62 NSCLC): 0.0431 µM and 0.106 µM
- GI50 (SK-MEL-5 melanoma): 2.17 µM
- GI50 (HCT-116 colon): 1.04 µM
- TGI (HCT-116 colon): > 500 µM
- GI50 (DU-145 prostate): 19.1 µM
- TGI (DU-145 prostate): > 500 µM

Compound: CSc1ccc(-c2cn3ccsc3n2)cc1
- GI50 (MCF7 breast): 1.33 µM
- TGI (MCF7 breast): > 100 µM
- GI50 (SK-OV-3 ovarian): 59.7 µM
- TGI (SK-OV-3 ovarian): > 100 µM
- GI50 (OVCAR-5 ovarian): 38.9 µM
- TGI (OVCAR-5 ovarian): > 100 µM
- GI50 (COLO 205 colon): 14.4 µM
- TGI (COLO 205 colon): > 100 µM
- GI50 (A549 NSCLC): 12.9 µM
- TGI (A549 NSCLC): > 100 µM
- GI50 (HL-60(TB) leukemia): 2.42 µM
- TGI (HL-60(TB) leukemia): > 50 µM
- GI50 (HOP-62 NSCLC): 34.6 µM
- TGI (HOP-62 NSCLC): > 100 µM
- GI50 (SK-MEL-5 melanoma): 14.3 µM
- TGI (SK-MEL-5 melanoma): 98.1 µM
- GI50 (HCT-116 colon): 3.6 µM
- TGI (HCT-116 colon): > 100 µM
- GI50 (DU-145 prostate): 9.07 µM
- TGI (DU-145 prostate): > 100 µM

Compound: NS(=O)(=O)c1cccc(Nc2cc(-c3ccc(F)cc3)[nH]n2)c1
- GI50 (MCF7 breast): 20.4 µM
- TGI (MCF7 breast): > 25 µM
- GI50 (SK-OV-3 ovarian): 13.2 µM
- TGI (SK-OV-3 ovarian): > 25 µM
- GI50 (OVCAR-5 ovarian): > 25 µM
- TGI (OVCAR-5 ovarian): > 25 µM
- GI50 (COLO 205 colon): > 25 µM
- TGI (COLO 205 colon): > 25 µM
- GI50 (A549 NSCLC): > 24.1 µM
- TGI (A549 NSCLC): > 25 µM
- GI50 (HL-60(TB) leukemia): > 25 µM
- TGI (HL-60(TB) leukemia): > 25 µM
- GI50 (HOP-62 NSCLC): > 25 µM
- TGI (HOP-62 NSCLC): > 25 µM
- GI50 (SK-MEL-5 melanoma): 24.5 µM
- TGI (SK-MEL-5 melanoma): > 25 µM
- GI50 (HCT-116 colon): 11.9 µM
- TGI (HCT-116 colon): > 25 µM
- GI50 (DU-145 prostate): 16.2 µM
- TGI (DU-145 prostate): > 25 µM

Compound: CCOC(=O)Nc1cc2c(c(N)n1)N=C(c1ccc(Cl)cc1Cl)CN2
- TGI (MCF7 breast): 21.7 µM
- TGI (SK-OV-3 ovarian): 23.2 µM
- TGI (OVCAR-5 ovarian): 45.1 µM
- TGI (COLO 205 colon): 4.85 µM
- TGI (A549 NSCLC): 19.3 µM
- TGI (HL-60(TB) leukemia): 0.0585 µM
- TGI (HOP-62 NSCLC): 19.8 µM
- TGI (SK-MEL-5 melanoma): 0.999 µM
- TGI (HCT-116 colon): 12.7 µM
- TGI (DU-145 prostate): 13.3 µM

Compound: COc1cc(F)c(F)c(Nc2ccc(I)cc2F)c1NS(=O)(=O)C1(CC(O)CO)CC1 (configuration not stated)
- GI50 (MCF7 breast): 16.6 µM
- TGI (MCF7 breast): 43.7 µM
- GI50 (SK-OV-3 ovarian): 25.8 µM
- TGI (SK-OV-3 ovarian): > 79.6 µM
- GI50 (OVCAR-5 ovarian): 10.2 µM
- TGI (OVCAR-5 ovarian): 30.1 µM
- GI50 (COLO 205 colon): 3.43 µM
- TGI (COLO 205 colon): 16.1 µM
- GI50 (A549 NSCLC): 15.4 µM
- TGI (A549 NSCLC): > 64.9 µM
- GI50 (HL-60(TB) leukemia): 7.19 µM
- TGI (HL-60(TB) leukemia): 57.7 µM
- GI50 (HOP-62 NSCLC): 14 µM
- TGI (HOP-62 NSCLC): 32.4 µM
- GI50 (SK-MEL-5 melanoma): 8.12 µM
- TGI (SK-MEL-5 melanoma): 21.9 µM
- GI50 (HCT-116 colon): 13.5 µM
- TGI (HCT-116 colon): 31.6 µM
- GI50 (DU-145 prostate): 19.4 µM
- TGI (DU-145 prostate): 54 µM
